Measured values reported in patent publication US20040077591A1, “Histone deacetylase inhibitors for the treatment of multiple sclerosis, amyotrophic lateral sclerosis and Alzheimer's Disease” (The Brigham and Women's Hospital, Inc., priority 2002, published 2004).
Marks after values point to notes of the source that are not given here.

Columns and labels:
[1] = test system: experimental autoimmune encephalomyelitis (EAE) in mice; assay: MOG-induced EAE in mice, clinical disability scoring; type: in vivo, C57BL/6 female mice; conditions: for EAE clinical disability: TSA 7.5 mg/kg/dose/d i.p., apparent in the chronic (days 20-40) phase
Text: FIG. 1—Efficacy of HDAC inhibitor treatment in reducing the clinical manifestations of experimental autoimmune encephalomyelitis (EAE) in mice. Mean clinical scores reflect reduced clinical disability by TSA in the neurodegenerative phase of EAE (● TSA-treated; ◯ vehicle-treated) (*P<0.05 by Fisher's protected least significant difference (PLSD) test). The remission phase lasted from days 19 to 34 following disease induction in a first experiment, days 21 to 32 in a second experiment. Animals were scored for signs of disability using the following widely used scale: 1, limp tail or isolated weakness of gait without limp tail; 2, partial hind leg paralysis; 3, total hind leg or partial hind and front leg paralysis and/or urinary incontinence; 4, total hind leg and partial front leg paralysis; 5, moribund or dead animal (with minor modifications from Issazadeh et al. (1998)). The definitions used were: (1) mean peak remission: mean of maximal score reached during remission, and (2) mean % days of severity: mean % of days with scores ≧2.
Experimental autoimmune encephalomyelitis (EAE) is the most widely accepted animal model for multiple sclerosis. […] Medications that currently modify the disease course in humans also modify the disease course in the animal model. The inventor has used the C57BL/6J mice (female mice 6-8 weeks old from Jackson Laboratories) for the experiments, which involve the administration of myelin oligodendrocyte glycoprotein (MOG), a myelin antigen, that induces autoimmunity against the brain tissue. EAE can also be induced in laboratory mice and rats using other myelin antigens.
Efficacy of HDAC inhibitor treatment in reducing the clinical manifestations of experimental autoimmune encephalomyelitis (EAE) in mice. The inventor injected 6-8 week-old C57BL/6 female mice (Jackson Laboratories, Bar Harbor, Me.) subcutaneously with 150 μg myelin oligodendrocyte glycoprotein (MOG)35-55 peptide (Quality Controlled Biochemicals, Hopkinton, Mass.) in PBS and CFA containing 0.4 mg of Mycobacterium tuberculosis (H37Ra, Difco, Detroit, Mich.), and i.p. on days 1 and 3 with 200 ng Pertussis (List Biological, Campbell, Calif.). TSA (7.5 mg/kg/dose/d i.p.) (Biomol, Plymouth Meeting, Pa. and Wako, Richmond, Va.) in PBS (9):DMSO (1) vehicle was begun on day 4. Ten mice were given vehicle and 9 were given TSA in a first experiment, wherease a second experiment utilized 15 per group.

[2] = test system: EAE mice spinal cords; assay: DNA microarray analysis of EAE mice spinal cords; type: in vivo
Text: (2) Modulation of genes involved in neuroprotection and immune regulation by TSA. a) Microarrays detect protective genes regulated by TSA in EAE mice spinal cords. The inventor pooled RNA from tissues of three animals in each group (TSA treated and vehicle-treated) for DNA microarray analysis. As shown (Table 3), intraperitoneal TSA led to the enhanced expression of mRNAs for the antioxidant glutathione peroxidase (Gpx1) and the neuroprotective insulin-like growth factor 2 (Igf2). […] Intraperitoneal TSA also led to decreased expression in EAE spinal cords of the chemokine receptor CCR6, immunoglobulin V(H)II, the vascular homeostasis-related phospholipase A2, and upregulation of the immunomodulatory factor interferon-α2 (Ifna2), the latter with known beneficial effects in MS patients.
Microarrays detect protective genes co-regulated by TSA in EAE mice spinal cords and spleens.

## CC(/C=C/C(=O)NO)=C\[C@@H](C)C(=O)c1ccc(N(C)C)cc1 [TSA, Trichostatin A]
[1]; TSA 7.5 mg/kg/dose/d i.p. from day 4, P = 0.0011 vs vehicle
  Mean % Days of Severity (mean % of days with scores ≧2): 33.9 ± 4.3** %
[1]; TSA 7.5 mg/kg/dose/d i.p. from day 4, two separate exp. pooled
  Days of Onset (Clinical EAE): 13 ± 0.5 days
[1]
  EAE clinical disability: decrease in EAE clinical disability
[1]; listed as Trichostatin A
  EAE clinical disability: effective in reducing EAE in mice
[1]; clinical score scale 1-5, TSA 7.5 mg/kg/dose/d i.p. from day 4, P = 0.0036 vs vehicle
  Mean Peak Remission Phase (mean of maximal score reached during remission): 1.8 ± 0.1*
[2]; Table 5, probe set AB010557, i.p. TSA, EAE mice spinal cord
  Fold Δ CNS, Paired box gene 4 (Pax4): −12.5 fold
[2]; Table 5, probe set AF009011, i.p. TSA, EAE mice spinal cord
  Fold Δ CNS, Axin: 4.9 fold
[2]; Table 5, probe set AF036008, i.p. TSA, EAE mice spinal cord
  Fold Δ CNS, DNA methyltransferase (Dnmt1): −8.8 fold
[2]; Table 5, probe set AV108173, i.p. TSA, EAE mice spinal cord
  Fold Δ CNS, Metaxin homolog: −11.6 fold
[2]; Table 5, probe set D10849, i.p. TSA, EAE mice spinal cord
  Fold Δ CNS, Thromboxane A2 receptor (Tbxa2r): −5.2 fold
[2]; Table 5, probe set L06444, i.p. TSA, EAE mice spinal cord
  Fold Δ CNS, Growth differentiation factor (Gdf9): 3.5 fold
[2]; Table 5, probe set M35131, i.p. TSA, EAE mice spinal cord
  Fold Δ CNS, Neurofilament heavy (Nefh): 2.3 fold
[2]; Table 5, probe set M95604, i.p. TSA, EAE mice spinal cord
  Fold Δ CNS, Snail homolog 1 (Snail1): 5.3 fold
[2]; Table 5, probe set U24160, i.p. TSA, EAE mice spinal cord
  Fold Δ CNS, Dishevelled 2 (Dvl2): −2.1 fold
[2]; Table 5, probe set U58974, i.p. TSA, EAE mice spinal cord
  Fold Δ CNS, Rearranged in lymphoma (Frat1): 4.5 fold
[2]; Table 5, probe set U62386, i.p. TSA, EAE mice spinal cord
  Fold Δ CNS, Immunoglobulin H and L variable: −2.1 fold
[2]; Table 5, probe set U70017, i.p. TSA, EAE mice spinal cord
  Fold Δ CNS, Cyclin D-interacting Dmp1 (Dmtf1): 5.4 fold
[2]; Table 5, probe set U77967, i.p. TSA, EAE mice spinal cord
  Fold Δ CNS, Neuronal PAS domain 1 (Npas1): 2 fold
[2]; Table 5, probe set U85714, i.p. TSA, EAE mice spinal cord
  Fold Δ CNS, Phospholipase C-beta-1b (Picb1): 3.4 fold
[2]; Table 5, probe set X03920, i.p. TSA, EAE mice spinal cord
  Fold Δ CNS, Glutathione peroxidase (Gpx1): 3 fold
[2]; Table 5, probe set X16678, i.p. TSA, EAE mice spinal cord
  Fold Δ CNS, Immunoglobulin kappa chain (1gk-V20): −3.3 fold
[2]; Table 5, probe set X55781, i.p. TSA, EAE mice spinal cord
  Fold Δ CNS, Paired box gene 2 (Pax2): 7.1 fold
[2]; Table 5, probe set Y07609, i.p. TSA, EAE mice spinal cord
  Fold Δ CNS, Max binding protein ROX (Mnt): −2.2 fold
[2]; probe set 92500, spinal cord, I.P. TSA vs vehicle-treated EAE mice
  Fold Change, Ten-m3: −5.4 fold
[2]; probe set 92782, spinal cord, I.P. TSA vs vehicle-treated EAE mice
  Fold Change, Thymopoietin (Tmpo): −6.4 fold
[2]; probe set 92833, spinal cord, I.P. TSA vs vehicle-treated EAE mice
  Fold Change, Histidine ammonia lyase (Ha): 5.3 fold
[2]; probe set 93275, spinal cord, I.P. TSA vs vehicle-treated EAE mice
  Fold Change, SH3 domain protein 2B: 4.5 fold
[2]; probe set 93378, spinal cord, I.P. TSA vs vehicle-treated EAE mice
  Fold Change, Hox-3.1: −5.3 fold
[2]; probe set 94521, spinal cord, I.P. TSA vs vehicle-treated EAE mice
  Fold Change, Cdk inhibitor p19: −5.3 fold
[2]; probe set 94717, spinal cord, I.P. TSA vs vehicle-treated EAE mice
  Fold Change, IFN-alpha-2 (1fna2): 5.6 fold
[2]; probe set 97540, spinal cord, I.P. TSA vs vehicle-treated EAE mice
  Fold Change, Histocompatibility 2 D region locus 1: 7.4 fold
[2]; probe set 97680, spinal cord, I.P. TSA vs vehicle-treated EAE mice
  Fold Change, Murinoglobulin (Mug): −7.2 fold
[2]; probe set 97970, spinal cord, I.P. TSA vs vehicle-treated EAE mice
  Fold Change, Transferrin-like p97: −5.7 fold
[2]; probe set 98623, spinal cord, I.P. TSA vs vehicle-treated EAE mice
  Fold Change, Insulin-like growth factor 2 (1gf2): 5.2 fold
[2]; probe set 99326, spinal cord, I.P. TSA vs vehicle-treated EAE mice
  Fold Change, Phospholipase A2 (Pla2): −6.4 fold
[2]; probe set 99899, spinal cord, I.P. TSA vs vehicle-treated EAE mice
  Fold Change, CCR6: −7.3 fold
[2]; probe set 100362, spinal cord, I.P. TSA vs vehicle-treated EAE mice
  Fold Change, Ig V(H)II: −4.9 fold
[2]; probe set 101676, spinal cord, I.P. TSA vs vehicle-treated EAE mice
  Fold Change, Glutathione peroxidase (Gpx1): 6.9 fold
[2]; probe set 104364, spinal cord, I.P. TSA vs vehicle-treated EAE mice
  Fold Change, Mapkapk5: −6.5 fold
